Measured values: patent US20100105729A1, “ARYL-SUBSTITUTED HETEROCYCLIC PDE4 INHIBITORS AS ANTI-INFLAMMATORY AGENTS” (KALYPSYS, INC., priority 2006, published 2010)
pIC50: −log10 of the molar value.

What was measured:
PDE4B = target: T1, PDE4B (Homo sapiens, UniProt Q07343); test: PDE4 IMAP Assay; format: biochemical; settings: catalytic domain of PDE4B, fluorescence polarization
T1 construct: hexa-histidine (His6) (N); made in house
Procedure, shortened: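 His-tagged PDE4B catalytic domain was preincubated with compound for 10 min, then given fluorescent cAMP substrate for 2 h at room temperature. IMAP binding reagent was added for 10–30 min to capture the nucleotide monophosphate product, and fluorescence polarization was read.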

PDE4 = PDE4 Cellular CNG Assay; format: cell-based; settings: HEK293 cells stably expressing the CNG channel
Text: Compounds may be screened for functional potency in in vitro cellular assays for their ability to inhibit the activity of phosphodiesterase (PDE) enzymes. A commercial membrane potential assay, Molecular Device's membrane potential assay kit, was modified and utilized to measure the inhibitory activity of compounds on PDE isoforms in living cells. The cellular assay utilizes genetically engineered cyclic nucleotide-gated (CNG) channels as cyclic-AMP (cAMP) sensors. On binding cAMP these ion channels open, allowing the flow of cations across the plasma membrane. CNG channel activity can be monitored by measuring Ca^2+influx in cell populations. The influx of Ca causes a change in membrane potential that is measured by voltage sensitive dyes. PDE inhibitors prevent the degradation of cAMP that is generated by adenylyl cyclases that are activated upon stimulation of G protein-coupled receptors (GPCR) linked to the cAMP pathway. In brief, Molecular Device's membrane potential dye was added to HEK293 cells stably expressing the CNG channel and incubated for 2 hours at room temperature. Test compounds were then added to the cells and incubated for 15 minutes. A GPCR agonist was then added to the cells to stimulate the cAMP pathway and incubated for 45 minutes. Fluorescent measurements were then conducted with either the Molecular Devices Acquest or Analyst. PDE inhibitors will inhibit the degradation of cAMP and cause an increase in fluorescent signal. Roflumilast and Rolipram are the positive controls used in the assay.

recombinant human PDE4 = settings: reported value; read-out: IC50 with respect to inhibiting recombinant human PDE4; cited from earlier work

T1 sequence (Q07343 330-659 limits assumed, species assumed): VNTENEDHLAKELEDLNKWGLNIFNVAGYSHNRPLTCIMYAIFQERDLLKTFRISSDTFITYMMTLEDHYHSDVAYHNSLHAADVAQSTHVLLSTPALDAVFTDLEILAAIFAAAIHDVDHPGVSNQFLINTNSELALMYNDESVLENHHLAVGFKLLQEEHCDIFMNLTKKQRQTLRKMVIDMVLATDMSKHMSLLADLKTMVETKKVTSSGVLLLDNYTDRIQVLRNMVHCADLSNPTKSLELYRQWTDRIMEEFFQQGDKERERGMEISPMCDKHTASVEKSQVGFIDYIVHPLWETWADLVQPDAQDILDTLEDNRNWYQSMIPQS

Structure (SMILES)	inhibition at 10 µM (PDE4B) [%]	PDE4 Cellular CNG Assay Activity at 10 μM (PDE4)	pIC50 (recombinant human PDE4)
COc1ccc(C2=NN(C(=O)c3ccccc3Cl)C(c3ccc(F)cc3)C2)cc1OC (stereo not drawn) [Example 31, (2-chlorophenyl)(3-(3,4-dimethoxyphenyl)-5-(4-fluorophenyl)-4,5-dihydro-1H-pyrazol-1-yl)methanone]	≥ 50	+ (+ indicates Activity ≧50% at 10 μM)	
COc1ccc(C2CNC(=O)C2)cc1OC1CCCC1 (stereo not drawn) [rolipram]			~6.70
COc1ccc(C2=NN(C(=O)c3cccs3)C(c3ccccc3F)C2)cc1OC (stereo not drawn) [Example 40, (3-(3,4-dimethoxyphenyl)-5-(2-fluorophenyl)-4,5-dihydro-1H-pyrazol-1-yl)(thiophen-2-yl)methanone]	≥ 50	− (− indicates Activity <50% at 10 μM)	

Now from value to molecule, other results behind:

inhibition at 10 µM (PDE4B) [%]	Structure (SMILES)	PDE4 Cellular CNG Assay Activity at 10 μM (PDE4)	pIC50 (recombinant human PDE4)
≥ 50	COc1ccc(C2=NN(C(=O)c3cc(OC)c(OC)c(OC)c3)C(c3cccc([N+](=O)[O-])c3)C2)cc1OC (stereo not drawn) [Example 77, (3-(3,4-dimethoxyphenyl)-5-(3-nitrophenyl)-4,5-dihydro-1H-pyrazol-1-yl)(3,4,5-trimethoxyphenyl)methanone]	+ (+ indicates Activity ≧50% at 10 μM)	
≥ 50	COc1ccc(C2=NN(C(=O)c3cc(OC)c(OC)c(OC)c3)C(c3ccc(F)cc3)C2)cc1OC (stereo not drawn) [Example 42, (3-(3,4-dimethoxyphenyl)-5-(4-fluorophenyl)-4,5-dihydro-1H-pyrazol-1-yl)(3,4,5-trimethoxyphenyl)methanone]	+ (+ indicates Activity ≧50% at 10 μM)	
